In paper PMC4575222 (ChemMedChem, 2011):

Key:
Vero cells = test: Cytotoxicity against Vero cells; assay type: cell-based
[1] = Metabolic stability in mouse liver microsomes; assay type: in vitro ADME; settings: for Qp,h (percentage ratio of predicted clearance over plasma flow): well-stirred model; for half-life: mouse, liver microsomes

Cc1c(Cc2ccc(Cl)cc2)c(=O)n2c([nH]c3ccccc32)c1C#N [3a, 2-(4-Chlorobenzyl)-3-methyl-1-oxo-1H,5H-pyrido[1,2-a]benzimidazole-4-carbonitrile]
selectivity index (SI) (Vero cells; IC50 Vero cells over MICMABA, repeat testing): 16
toxicity toward Vero cells from the HTS studies (Vero cells; initial HTS study, before repeat testing): > 100 µm
Qp,h (percentage ratio of predicted clearance over plasma flow) ([1]; mouse liver microsomes): 95.4%
half-life [1]: 6.5 min

Cc1c(Cc2cccc(C(F)(F)F)c2)c(=O)n2c([nH]c3ccccc32)c1C#N [3d, 3-Methyl-1-oxo-2-[3-(trifluoromethyl)benzyl]-1H,5H-pyrido[1,2-a]-benzimidazole-4-carbonitrile]
Qp,h (percentage ratio of predicted clearance over plasma flow) ([1]; mouse liver microsomes): 90.0%
half-life [1]: 15 min

COc1cccc(Cc2c(C)c(C#N)c3[nH]c4ccccc4n3c2=O)c1 [3e, 3-Methyl-2-(3-methoxybenzyl)-1-oxo-1H,5H-pyrido[1,2-a]benzimidazole-4-carbonitrile]
Qp,h (percentage ratio of predicted clearance over plasma flow) ([1]; mouse liver microsomes): 93.5%
half-life [1]: 9.43 min

Cc1c(Cc2ccccc2)c(=O)n2c([nH]c3ccccc32)c1C#N [3v, 2-Benzyl-3-methyl-1-oxo-1H,5H-pyrido[1,2-a]benzimidazole-4-carbonitrile]
Qp,h (percentage ratio of predicted clearance over plasma flow) ([1]; mouse liver microsomes): 94.5%
half-life [1]: 7.82 min

Cc1c(C)c(=O)n2c([nH]c3ccccc32)c1C#N [3w, 2,3-Dimethyl-1-oxo-1H,5H-pyrido[1,2-a]benzimidazole-4-carbonitrile]
Half life ([1]; mouse liver microsomes, 30 min incubation): most stable member of the set of compounds tested
Qp,h (percentage ratio of predicted clearance over plasma flow) ([1]; mouse liver microsomes): 72.5%
half-life [1]: 51.2 min
